For 27 molecules, ring closure, isolated yield and EC50 results are on record in patent US9663536B2, “Inhibitors of human immunodeficiency virus replication” (priority 2013, dated 2017).

Tested on in the first data set: not given
Experiment: not given
Conditions: from C=CCCC1(C)CCN(c2c(CC(=O)OC)c(C)nc3cc(-c4cnn(Cc5ccccc5OCC=C)c4)nn23)CC1; rcm bond; 20-membered ring; Hoveyda-Grubbs II (10 mol%); DCE; 5.02 mM; 70.0 °C; 1.0 h.
For `COC(=O)Cc1c(C)nc2cc3nn2c1N1CCC(C)(CC/C=C/COc2ccccc2Cn2cc-3cn2)CC1`, the ring closure, isolated yield was 63%.

The same data set, now with this note: from C=CCOc1ccccc1Cc1cnc(-c2cc3nc(C)c([C@H](OC(C)(C)C)C(=O)OCC)c(N4CCC(C)(OCC=C)CC4)n3n2)s1; rcm bond; 20-membered ring; Hoveyda-Grubbs II (10 mol%); DCE; 1.64 mM; 70.0 °C; 2.0 h.
Take `CCOC(=O)[C@@H](OC(C)(C)C)c1c(C)nc2cc3nn2c1N1CCC(C)(CC1)OCC=CCOc1ccccc1Cc1cnc-3s1`: the ring closure, isolated yield was 76%.

The same data set, now with this note: from C=CCOc1ccccc1Cc1cnn(-c2cc3nc(C)c([C@H](OC(C)(C)C)C(=O)OC)c(N4CCC(C)(OCC=C)CC4)n3n2)c1; rcm bond; 20-membered ring; Hoveyda-Grubbs II (10 mol%); DCE; 1.2 mM; 70.0 °C; 3.0 h.
As for `COC(=O)[C@@H](OC(C)(C)C)c1c(C)nc2cc3nn2c1N1CCC(C)(CC1)OC/C=C/COc1ccccc1Cc1cnn-3c1`, the ring closure, isolated yield worked out at 74%.

For the next data set, the system named is recombinant NL-Rluc virus. Nature of the data set: Inhibition of HIV replication (NL-Rluc virus in MT-2 cells, luciferase readout). It is filed as cell-based. As to conditions: Human immunodeficiency virus 1, MT2, 120 h.
As to `Cc1nc2cc3nn2c(c1[C@H](OC(C)(C)C)C(=O)O)N1CCC(C)(CC/C=C/COc2ccccc2Cc2cnc-3s2)CC1` [Example 24, (2S)-2-(tert-Butoxy)-2-[(23E)-4,27-dimethyl-21-oxa-32-thia-1,5,7,8,11-pentaazahexacyclo[25.2.2.1^6,9.1^10,13.0^2,7.0^15,20]tritriaconta-2,4,6(33),8,10,12,15(20),16,18,23-decaen-3-yl]acetic Acid], the EC50 (in general, the concentration at which the effect is half-maximal) came to 11 nM. In the case of `Cc1nc2cc3nn2c(c1[C@H](OC(C)(C)C)C(=O)O)N1CCC(C)(CC/C=C/C[C@@H](C)Oc2cc(F)ccc2Cc2cnc-3s2)CC1` [Example 19, (2S)-2-(tert-Butoxy)-2-[(22R,24E)-18-fluoro-4,22,28-trimethyl-21-oxa-33-thia-1,5,7,8,11-pentaazahexacyclo[26.2.2.1^6,9.1^10,13.0^2,7.0^15,20]tetratriaconta-2,4,6(34),8,10,12,15(20),16,18,24-decaen-3-yl]acetic acid], the EC50 came out at 17 nM.

In the case of `Cc1nc2cc3nn2c(c1[C@H](OC(C)(C)C)C(=O)O)N1CCC(C)(/C=C/CCCc2cc(F)ccc2Cc2cnc-3s2)CC1` (single isomer, unassigned) [Example 16], the EC50 was 12 nM. Regarding `Cc1nc2cc3nn2c(c1[C@H](OC(C)(C)C)C(=O)O)N1CCC(C)(CC1)OC/C=C/CCc1cccc(c1)Cc1cnc-3s1` [Example 3, (2S)-2-(tert-Butoxy)-2-[(22E)-4,26-dimethyl-25-oxa-32-thia-1,5,7,8,11-pentaazahexacyclo[24.2.2.1^6,9.1^10,13.1^15,19.0^2,7]tritriaconta-2,4,6(33),8,10,12,15(31),16,18,22-decaen-3-yl]acetic acid], the EC50 amounted to 3 nM. Take `Cc1nc2cc3nn2c(c1[C@H](OC(C)(C)C)C(=O)O)N1CCC(C)(CC/C=C\CCOc2ccccc2Cc2cnn-3c2)CC1` [Example 35, (2S)-2-(tert-Butoxy)-2-[(24Z)-4,28-dimethyl-21-oxa-1,5,7,8,10,11-hexaazahexacyclo[26.2.2.1^6,9.1^10,13.0^2,7.0^15,20]tetratriaconta-2,4,6(34),8,11,13(33),15(20),16,18,24-decaen-3-yl]acetic acid]: the EC50 stood at 20 nM.

In the case of `Cc1nc2cc3nn2c(c1[C@H](OC(C)(C)C)C(=O)O)N1CCC(C)(CC1)OCCCCOc1ccccc1Cc1cnc-3s1` [Example 5, (2S)-2-(tert-Butoxy)-2-{4,27-dimethyl-21,26-dioxa-32-thia-1,5,7,8,11-pentaazahexacyclo[25.2.2.1^6,9.1^10,13.0^2,7.0^15,20]tritriaconta-2,4,6(33),8,10,12,15(20),16,18-nonaen-3-yl}Acetic Acid], the EC50 worked out at 6 nM.

Take `Cc1nc2cc3nn2c(c1[C@H](OC(C)(C)C)C(=O)O)N1CCC(C)(CC/C=C/COc2cccc(c2)Cc2cnn-3c2)CC1` [Example 37]: the EC50 was 3 nM. On to `Cc1nc2cc3nn2c(c1[C@H](OC(C)(C)C)C(=O)O)N1CCC(C)(/C=C/CCCCc2ccccc2Cc2cnc-3s2)CC1` [Example 13, (2S)-2-(tert-Butoxy)-2-[(25E)-4,27-dimethyl-32-thia-1,5,7,8,11-pentaazahexacyclo[25.2.2.1^6,9.1^10,13.0^2,7.0^15,20]tritriaconta-2,4,6(33),8,10,12,15(20),16,18,25-decaen-3-yl]acetic acid], for which the EC50 was 12 nM. Consider `Cc1nc2cc3nn2c(c1[C@H](OC(C)(C)C)C(=O)O)N1CCC(C)(CC/C=C\C[C@@H](C)Oc2cc(F)ccc2Cc2cnc-3s2)CC1` [Example 20, (2S)-2-(tert-Butoxy)-2-[(22R,24Z)-18-fluoro-4,22,28-trimethyl-21-oxa-33-thia-1,5,7,8,11-pentaazahexacyclo[26.2.2.1^6,9.1^10,13.0^2,7.0^15,20]tetratriaconta-2,4,6(34),8,10,12,15(20),16,18,24-decaen-3-yl]acetic acid], for which the EC50 stood at 32 nM.

On to `Cc1nc2cc3nn2c(c1[C@H](OC(C)(C)C)C(=O)O)N1CCC(C)(CC1)OC/C=C/Cc1ccccc1Cc1cnc-3s1` (single isomer, unassigned) [Example 1], for which the EC50 was 2 nM. Still for that read-out and setting: with `Cc1nc2cc3nn2c(c1[C@H](OC(C)(C)C)C(=O)O)N1CCC(C)(/C=C/CCCCc2cc(F)ccc2Cc2cnc-3s2)CC1` (single isomer, unassigned) [Example 15] the figure was 13 nM; with `Cc1nc2cc3nn2c(c1[C@H](OC(C)(C)C)C(=O)O)N1CCC(C)(/C=C/C=C/CCc2ccccc2Cc2cnc-3s2)CC1` [Example 12, (2S)-2-(tert-Butoxy)-2-[(23E,25E)-4,27-dimethyl-32-thia-1,5,7,8,11-pentaazahexacyclo[25.2.2.1^6,9.1^10,13.0^2,7.0^15,20]tritriaconta-2,4,6(33),8,10,12,15(20),16,18,23,25-undecaen-3-yl]acetic acid], 8 nM; with `Cc1nc2cc3nn2c(c1[C@H](OC(C)(C)C)C(=O)O)N1CCC(C)(CC/C=C\CCc2ccc(F)cc2Cc2cnc-3s2)CC1` (single isomer, unassigned) [Example 22], 35 nM. With `Cc1nc2cc3nn2c(c1[C@H](OC(C)(C)C)C(=O)O)N1CCC(C)(CC/C=C\COc2cccc(c2)Cc2cnn-3c2)CC1` [Example 38], the EC50 stood at 22 nM. On the same count and under the same terms, with `Cc1nc2cc3nn2c(c1[C@H](OC(C)(C)C)C(=O)O)N1CCC(C)(CC1)OCCCCOc1c(F)cccc1Cc1cnn-3c1` [Example 28, (2S)-2-(tert-Butoxy)-2-{19-fluoro-4,27-dimethyl-21,26-dioxa-1,5,7,8,10,11-hexaazahexacyclo[25.2.2.1^6,9.1^10,13.0^2,7.0^15,20]tritriaconta-2,4,6(33),8,11,13(32),15(20),16,18-nonaen-3-yl}acetic acid] the figure was 11 nM. Turning to `Cc1nc2cc3nn2c(c1[C@H](OC(C)(C)C)C(=O)O)N1CCC(C)(CC/C=C/CCc2ccc(F)cc2Cc2cnc-3s2)CC1` (single isomer, unassigned) [Example 21], the EC50 was 13 nM. On the same count and under the same terms, with `Cc1nc2cc3nn2c(c1[C@H](OC(C)(C)C)C(=O)O)N1CCC(C)(CC/C=C/CCc2cc(F)ccc2Cc2cnc-3s2)CC1` (single isomer, unassigned) [Example 17] the figure was 18 nM; with `Cc1nc2cc3nn2c(c1[C@H](OC(C)(C)C)C(=O)O)N1CCC(C)(CC1)OCCCCOc1ccc(F)cc1Cc1cnn-3c1` [Example 30, (2S)-2-(tert-Butoxy)-2-{17-fluoro-4,27-dimethyl-21,26-dioxa-1,5,7,8,10,11-hexaazahexacyclo[25.2.2.1^6,9.1^10,13.0^2,7.0^15,20]tritriaconta-2,4,6(33),8,11,13(32),15(20),16,18-nonaen-3-yl}acetic acid], 2 nM; with `Cc1nc2cc3nn2c(c1[C@H](OC(C)(C)C)C(=O)O)N1CCC(C)(CC/C=C/COc2ccccc2Cn2cc-3cn2)CC1` [Example 41], 3 nM. The same measure, in the same setting: with `Cc1nc2cc3nn2c(c1[C@H](OC(C)(C)C)C(=O)O)N1CCC(C)(CC1)OCCCCOc1ccccc1Cc1cnn-3c1` [Example 25, (2S)-2-(tert-Butoxy)-2-{4,27-dimethyl-21,26-dioxa-1,5,7,8,10,11-hexaazahexacyclo[25.2.2.1^6,9.1^10,13.0^2,7.0^15,20]tritriaconta-2,4,6(33),8,11,13(32),15(20),16,18-nonaen-3-yl}acetic acid] the figure was 5 nM; with `Cc1nc2cc3nn2c(c1[C@H](OC(C)(C)C)C(=O)O)N1CCC(C)(CC1)OC/C=C/COc1ccc(F)cc1Cc1cnn-3c1` [Example 29, (2S)-2-(tert-Butoxy)-2-[(23E)-17-fluoro-4,27-dimethyl-21,26-dioxa-1,5,7,8,10,11-hexaazahexacyclo[25.2.2.1^6,9.1^10,13.0^2,7.0^15,20]tritriaconta-2,4,6(33),8,11,13(32),15(20),16,18,23-decaen-3-yl]acetic acid], 2 nM; with `Cc1nc2cc3nn2c(c1[C@H](OC(C)(C)C)C(=O)O)N1CCC(C)(CC1)OC/C=C/COc1ccccc1Cc1cnc-3o1` [Example 10, (2S)-2-(tert-Butoxy)-2-[(23E)-4,27-dimethyl-21,26,32-trioxa-1,5,7,8,11-pentaazahexacyclo[25.2.2.1^6,9.1^10,13.0^2,7.0^15,20]tritriaconta-2,4,6(33),8,10,12,15 (20),16,18,23-decaen-3-yl]acetic acid], 2 nM. In the case of `Cc1nc2cc3nn2c(c1[C@H](OC(C)(C)C)C(=O)O)N1CCC(C)(CCCCCCc2ccccc2Cc2cnc-3s2)CC1` [Example 14, (2S)-2-(tert-Butoxy)-2-{4,27-dimethyl-32-thia-1,5,7,8,11-pentaazahexacyclo[25.2.2.1^6,9.1^10,13.0^2,7.0^15,20]tritriaconta-2,4,6(33),8,10,12,15(20),16,18-nonaen-3-yl}acetic acid], the EC50 was 41 nM. As for `Cc1nc2cc3nn2c(c1[C@H](OC(C)(C)C)C(=O)O)N1CCC(C)(C/C=C/CCc2cc(F)ccc2Cc2cnc-3s2)CC1` (single isomer, unassigned) [Example 18], the EC50 was found to be 11 nM.
